# Tests used:
# Solubility test by HPLC = format: physicochemical
# Source text: Studying drug solubility is a crucial part of the pre-formulation study. It is an integral phase that every drug has been through in any development process to determine its bioavailability and the best excipients used during formulation. The solubility of compound 6j was detected using HPLC in methanol, ethanol, and acetonitrile. […] With such results, compound 6j requires the addition of a surfactant to increase its solubility, especially in water. Different types of surfactants could be used to study their effect on increasing solubility in future plans. We see that this compound has the potential to go through the formulation study. […] Accordingly, the active compound 6j was analyzed with SwissADME. The physicochemical properties of compound 6j, molecular weight (392.83 g/mol), fraction Csp3 (0.09), rotatable bonds (5), H-bond acceptors (4), H-bond donors (1), molar refractivity (112.41), and topological polar surface area (TPSA) (60.45 Å^2) were measured. For lipophilicity, log Po/w (XLOGP3) (3.93), log Po/w (WLOGP) (3.98), log Po/w (MLOGP) (2.66), log Po/w (SILICOS-IT) (5.03) and consensus It was measured as log Po/w (3.75). […] The drug-likeness status of 6j was detected as suitable according to Lipinski, Ghose, Veber, Egan, and Muegge’s limited rules.[44] […]
# MCF-7 cells = test: Morphological assessment under inverted microscope; format: cell-based, human; details: 50 and 100 μM; 48 h after treatment
# Procedure: (§1) In addition to the viability analyses, morphological evaluations were performed after treating the cells with different doses of 6j (5, 10, 20, 50, and 100 μM) to better understand what was going on in the plate wells. The cells were photographed under an inverted microscope 48 h after 6j treatment. […] The cell morphology has not deteriorated, and the membrane structures were preserved in a healthy way in the 6j-applied cells.
# (§2) Morphological studies were performed to observe the effects of 6j on MCF-7 and MCF-12A cells, as previously reported.[63] In brief, 5 × 10^5 cells were seeded into six-well plates and incubated for 24 h. Afterward, increasing doses of compound 6j (5, 10, 20, 50, and 100 μM) were applied to the cells. The medium containing 0.1% DMSO was used as the untreated control. 48 h after treatments, the cells were photographed under an inverted microscope, Leica DM IL LED with a DFC-290 camera (Leica, Wetzlar, Germany).
# MCF-12A cells = test: Morphological assessment under inverted microscope; format: cell-based, human; details: 50 and 100 μM; 48 h after treatment
# Procedure: as §1, §2
# [1] = tested on: estrogen-induced uterotrophic effect; test: In vivo anti-estrogenic (anti-uterotrophic) activity, immature rat model; set-up: species or system Wistar immature female rats; details: oral, 20 mg/kg (tamoxifen 20 mg/kg/day, 6j equimolar per method), 3 days, with estradiol 10 μg/kg/day s.c.; immature female rats
# Procedure: The anti-estrogenic activity was assessed as previously described.[65]−[67] All experiments were carried out in accordance with the recommendations of the […] Animal Care and Use Committee. The experimental protocol was approved by “The Commission on the Ethics of Scientific Research”, Faculty of Pharmacy, Minia University (no. ES30/2021). 20-day-old Wistar immature female rats (40–50 g) from the animal care facility of Nahda University at Beni Suef (NUB) were allowed to acclimatize to lab conditions for 3 days before the experiment with free access to food and water. Estradiol was diluted in olive oil and subcutaneously injected on the loose dorsal skin in a dose of 10 μg/kg/day. […] Both compounds were dissolved in a mixture of DMSO, Tween 20, and saline (1:1:8, respectively) and orally administered. The rats were randomly assigned to […] (n = 6) subjected to daily s.c. injections of estradiol, except for the control group. […] On the 4th day, all rats were sacrificed by cervical dislocation, and the uteri were dissected free of fat and weighed immediately. […] The results were expressed as percent inhibition from the formula [drawing 1] […] It is noteworthy that doses of the tested compounds are calculated on a molar basis. […] Values are expressed as mean ± SEM.
smiles,measurement,setting,value
COc1cc(C=C2C(=O)Nc3ccc(Cl)cc32)ccc1OCc1ccccn1 (mixture of isomers) [6j],water solubility,Solubility test by HPLC,did not detect any water solubility
same,MCF-7 cell morphology / proliferation,MCF-7 cells,remained stable by stopping cell division without being toxic
same,MCF-12A cell morphology / proliferation,MCF-12A cells,continued to proliferate
same,anti-uterotrophic activity (inhibition of estrogen-induced uterine weight),[1],38%

# Source: paper PMC9948168, “Vanillin-Based Indolin-2-one Derivative Bearing a Pyridyl Moiety as a Promising Anti-Breast Cancer Agent via Anti-Estrogenic Activity” (ACS Omega, 2023)
